Results from patent publication US8084457B2, “Pharmaceutically active 4,6-disubstituted aminopyrimidine derivatives as modulators of protein kinases” (Lead Discovery Center GmbH, priority 2003, dated 2011).

Legend:
Assay type in all cases: biochemical
[1] = target: T1, CDK4 (Homo sapiens, UniProt P11802); experiment: Kinase assay, CDK4 activity range (Table 2)
[2] = target: T2, CDK2/CyclinA (Homo sapiens, UniProt P24941); experiment: Kinase assay determining CDK2/CyclinA activity; conditions: read-out: CDK2 (activity range)
T2 construct: purchased Proqinase
Experimental: Kinase Assays Determining CDK2/CyclinA and CDK5/p35 Activity:
Kinase assays were performed as described by the manufacturers recommendations (Proqinase for CDK2/CyclinA and Upsate for CDK5/p35).

[3] = target: T3, CDK9/Cyclin T1 (Homo sapiens, UniProt P50750); experiment: Kinase assay using CDK9/Cyclin T1; conditions: read-out: CDK9 (activity range)
T3 construct: made in house; host or cells: HEK293 cells, recombinant adenovirus
Method in brief: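 Recombinant CDK9/Cyclin T1 produced via adenoviral expression from gateway-cloned cDNAs. Kinase reaction run essentially per a published protocol.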

[4] = target: c-Kit (Homo sapiens, UniProt P10721); experiment: General kinase assay, selectivity panel: c-Kit; conditions: 10 μM of compound, in comparison to DMSO (0% inhibition)
Experimental: (§1) The inhibitory effect of compounds according to the present invention on the activity of protein kinases, depicted in Table 1, can be measured according to the following protocol:
(§2) Pipettinq Sequence: • 1) Add 10 μl 4 fold concentrated Substrate+4 fold concentrated ATP in 3 fold concentrated Reaction Buffer to each well of Assay Plate • 2) Add 10 μl 4 fold concentrated inhibitor in 4% DMSO in H2O to each well except to C− and C+ wells • 3) Add 10 μl 4% DMSO in H2O to C− and C+ wells • 4) Add 10 μl 500 mM EDTA in H2O to − wells • 5) Add 10 μl 50 μCi/ml Adenosine 5′-[γ-^33P]triphosphate in H2O to each well • 6) Add 10 μl 4 fold concentrated kinase in Reaction Buffer to each well • 7) Incubate 1 hr at room temperature • 8) Add 10 μl 50 mM EDTA in H2O to each well except to C− wells • 9) Prepare MAPH plates by adding 200 μl 0.75% H3PO4 to each well • 10) Exhaust 0.75% H3PO4 using Millipore vacuum station • 11) Add 60 μl 0.75% H3PO4 to each well of MAPH Filter Plate • 12) Transfer 30 μl sample per well from Assay Plate to corresponding well of MAPH Filter Plate • 13) Incubate 30 min at room temperature • 14) Wash each well of MAPH Filter Plates 3× with 200 μl 0.75% H3PO4 using Millipore vacuum station. • 15) Add 20 μl Scintillation Liquid to each well of MAPH Filter Plate • 16) Seal MAPH Filter Plate • 17) Store MAPH Filter Plate 30 min in darkness • 18) Quantify radioactivity
(§3) The activity of these protein kinases is depicted as % inhibition in the presence of 10 μM of compound in comparison to DMSO (0% inhibition).

[5] = target: CDK1 (Homo sapiens, UniProt P06493); experiment: General kinase assay, selectivity panel: CDK1; conditions: 10 μM of compound, in comparison to DMSO (0% inhibition)
Experimental: as §1, §2, §3

[6] = target: p56 Lck (Homo sapiens, UniProt P06239); experiment: General kinase assay, selectivity panel: p56 Lck; conditions: 10 μM of compound, in comparison to DMSO (0% inhibition)
Experimental: as §1, §2, §3

[7] = tested on: PDGFR; experiment: General kinase assay, selectivity panel: PDGFR; conditions: 10 μM of compound, in comparison to DMSO (0% inhibition)
Experimental: as §1, §2, §3

[8] = target: GSK-3β (Homo sapiens, UniProt P49841); experiment: General kinase assay, selectivity panel: GSK-3β; conditions: 10 μM of compound, in comparison to DMSO (0% inhibition)
Experimental: as §1, §2, §3

[9] = target: EGFR (Homo sapiens, UniProt P00533); experiment: General kinase assay, selectivity panel: EGFR; conditions: 10 μM of compound, in comparison to DMSO (0% inhibition)
Experimental: as §1, §2, §3

[10] = target: Abl (Homo sapiens, UniProt P00519); experiment: General kinase assay, selectivity panel: Abl; conditions: 10 μM of compound, in comparison to DMSO (0% inhibition)
Experimental: as §1, §2, §3

[11] = target: T1, CDK4; experiment: CDK4 (activity range), Table 2; no method described

Sequence of Abl (P00519 whole entry, species assumed): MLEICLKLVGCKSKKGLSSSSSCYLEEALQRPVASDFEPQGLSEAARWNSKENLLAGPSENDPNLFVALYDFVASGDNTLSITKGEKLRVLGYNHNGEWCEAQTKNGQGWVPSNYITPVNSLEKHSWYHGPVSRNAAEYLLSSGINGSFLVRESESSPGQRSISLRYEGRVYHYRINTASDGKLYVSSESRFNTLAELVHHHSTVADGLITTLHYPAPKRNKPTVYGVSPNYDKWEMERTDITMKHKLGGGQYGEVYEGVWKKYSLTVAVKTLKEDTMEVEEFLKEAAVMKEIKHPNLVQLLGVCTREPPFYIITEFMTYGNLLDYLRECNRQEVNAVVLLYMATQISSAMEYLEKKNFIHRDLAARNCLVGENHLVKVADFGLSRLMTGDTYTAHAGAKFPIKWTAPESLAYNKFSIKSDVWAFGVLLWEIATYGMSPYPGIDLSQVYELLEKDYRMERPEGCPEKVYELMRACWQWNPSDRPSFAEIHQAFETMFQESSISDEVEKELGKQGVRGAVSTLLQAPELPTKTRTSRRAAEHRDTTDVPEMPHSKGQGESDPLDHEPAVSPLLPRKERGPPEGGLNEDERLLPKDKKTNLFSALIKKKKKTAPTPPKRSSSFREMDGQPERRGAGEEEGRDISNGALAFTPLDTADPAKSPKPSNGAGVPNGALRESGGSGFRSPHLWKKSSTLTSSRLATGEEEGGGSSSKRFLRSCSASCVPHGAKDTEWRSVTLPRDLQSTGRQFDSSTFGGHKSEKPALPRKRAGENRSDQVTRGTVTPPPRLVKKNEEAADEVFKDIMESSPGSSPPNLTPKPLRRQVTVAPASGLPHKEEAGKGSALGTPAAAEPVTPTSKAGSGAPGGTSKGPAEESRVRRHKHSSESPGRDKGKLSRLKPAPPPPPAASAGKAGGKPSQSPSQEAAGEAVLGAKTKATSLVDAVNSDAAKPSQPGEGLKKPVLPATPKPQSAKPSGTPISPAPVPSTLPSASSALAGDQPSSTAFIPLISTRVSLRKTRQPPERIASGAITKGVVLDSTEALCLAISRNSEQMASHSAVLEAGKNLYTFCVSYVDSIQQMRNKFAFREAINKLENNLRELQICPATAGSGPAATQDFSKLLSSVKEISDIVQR
Sequence of GSK-3β (P49841 whole entry, species assumed): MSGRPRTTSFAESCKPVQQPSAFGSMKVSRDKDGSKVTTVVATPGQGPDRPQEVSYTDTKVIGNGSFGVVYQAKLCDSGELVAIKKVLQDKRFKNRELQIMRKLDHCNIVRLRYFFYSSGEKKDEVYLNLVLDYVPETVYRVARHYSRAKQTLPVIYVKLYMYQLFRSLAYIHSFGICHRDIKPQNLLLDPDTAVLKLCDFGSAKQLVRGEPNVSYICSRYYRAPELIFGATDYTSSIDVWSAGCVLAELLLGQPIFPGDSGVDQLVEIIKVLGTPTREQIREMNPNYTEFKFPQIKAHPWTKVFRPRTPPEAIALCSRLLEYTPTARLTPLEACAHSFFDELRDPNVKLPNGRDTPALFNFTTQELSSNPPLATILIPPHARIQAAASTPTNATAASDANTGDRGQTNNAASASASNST
Sequence of EGFR (P00533 25-1210, species assumed): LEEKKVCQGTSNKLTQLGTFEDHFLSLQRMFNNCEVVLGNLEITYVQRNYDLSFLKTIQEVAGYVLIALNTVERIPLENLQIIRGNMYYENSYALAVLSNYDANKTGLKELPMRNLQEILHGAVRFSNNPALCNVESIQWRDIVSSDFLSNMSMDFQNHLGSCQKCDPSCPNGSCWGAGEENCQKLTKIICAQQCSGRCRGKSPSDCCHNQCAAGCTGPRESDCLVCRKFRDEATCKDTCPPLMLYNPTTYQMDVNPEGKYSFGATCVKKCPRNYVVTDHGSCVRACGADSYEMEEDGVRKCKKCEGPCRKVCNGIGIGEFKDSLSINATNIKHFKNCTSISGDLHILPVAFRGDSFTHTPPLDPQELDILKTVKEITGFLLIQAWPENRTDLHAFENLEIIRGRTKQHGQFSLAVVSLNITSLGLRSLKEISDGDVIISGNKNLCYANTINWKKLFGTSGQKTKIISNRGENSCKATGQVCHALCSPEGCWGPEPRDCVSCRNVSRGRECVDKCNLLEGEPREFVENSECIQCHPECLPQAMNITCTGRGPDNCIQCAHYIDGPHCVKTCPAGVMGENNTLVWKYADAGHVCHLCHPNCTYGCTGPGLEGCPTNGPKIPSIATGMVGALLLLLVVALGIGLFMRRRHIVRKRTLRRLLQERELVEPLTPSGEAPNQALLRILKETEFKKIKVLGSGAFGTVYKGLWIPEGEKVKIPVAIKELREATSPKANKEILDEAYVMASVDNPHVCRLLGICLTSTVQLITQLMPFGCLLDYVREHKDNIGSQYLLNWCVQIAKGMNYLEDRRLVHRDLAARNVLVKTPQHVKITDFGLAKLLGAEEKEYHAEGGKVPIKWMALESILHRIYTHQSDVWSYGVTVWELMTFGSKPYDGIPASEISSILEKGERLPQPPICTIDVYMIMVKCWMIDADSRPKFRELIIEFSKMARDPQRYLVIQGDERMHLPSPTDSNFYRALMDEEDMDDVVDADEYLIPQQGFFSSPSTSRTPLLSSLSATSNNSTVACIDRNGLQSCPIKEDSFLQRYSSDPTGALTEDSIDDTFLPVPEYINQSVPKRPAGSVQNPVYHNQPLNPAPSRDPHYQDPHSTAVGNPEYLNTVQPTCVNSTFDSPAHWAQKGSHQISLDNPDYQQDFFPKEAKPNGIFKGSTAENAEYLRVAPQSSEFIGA
Sequence of CDK1 (P06493 whole entry, species assumed): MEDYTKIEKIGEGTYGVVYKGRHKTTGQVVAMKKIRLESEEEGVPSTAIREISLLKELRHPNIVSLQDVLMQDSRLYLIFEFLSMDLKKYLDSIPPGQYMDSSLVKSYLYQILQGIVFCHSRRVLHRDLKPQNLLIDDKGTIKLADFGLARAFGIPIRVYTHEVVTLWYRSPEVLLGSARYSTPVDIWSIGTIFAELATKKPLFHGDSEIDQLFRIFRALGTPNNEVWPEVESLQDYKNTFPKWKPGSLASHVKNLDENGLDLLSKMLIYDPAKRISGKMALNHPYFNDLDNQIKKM
Sequence of CDK1 (P14635 whole entry partner, species assumed): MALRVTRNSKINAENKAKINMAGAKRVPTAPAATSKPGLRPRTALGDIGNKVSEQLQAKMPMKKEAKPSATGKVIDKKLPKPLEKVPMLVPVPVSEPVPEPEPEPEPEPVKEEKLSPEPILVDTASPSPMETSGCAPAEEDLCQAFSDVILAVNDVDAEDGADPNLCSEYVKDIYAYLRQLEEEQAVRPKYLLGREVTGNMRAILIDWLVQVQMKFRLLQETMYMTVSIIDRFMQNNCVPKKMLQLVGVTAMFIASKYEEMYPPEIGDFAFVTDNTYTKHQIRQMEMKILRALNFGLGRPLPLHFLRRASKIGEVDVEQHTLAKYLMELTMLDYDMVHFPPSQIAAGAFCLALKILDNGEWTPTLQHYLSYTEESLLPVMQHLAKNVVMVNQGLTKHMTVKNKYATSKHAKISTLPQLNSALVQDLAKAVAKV
Sequence of p56 Lck (P06239 whole entry): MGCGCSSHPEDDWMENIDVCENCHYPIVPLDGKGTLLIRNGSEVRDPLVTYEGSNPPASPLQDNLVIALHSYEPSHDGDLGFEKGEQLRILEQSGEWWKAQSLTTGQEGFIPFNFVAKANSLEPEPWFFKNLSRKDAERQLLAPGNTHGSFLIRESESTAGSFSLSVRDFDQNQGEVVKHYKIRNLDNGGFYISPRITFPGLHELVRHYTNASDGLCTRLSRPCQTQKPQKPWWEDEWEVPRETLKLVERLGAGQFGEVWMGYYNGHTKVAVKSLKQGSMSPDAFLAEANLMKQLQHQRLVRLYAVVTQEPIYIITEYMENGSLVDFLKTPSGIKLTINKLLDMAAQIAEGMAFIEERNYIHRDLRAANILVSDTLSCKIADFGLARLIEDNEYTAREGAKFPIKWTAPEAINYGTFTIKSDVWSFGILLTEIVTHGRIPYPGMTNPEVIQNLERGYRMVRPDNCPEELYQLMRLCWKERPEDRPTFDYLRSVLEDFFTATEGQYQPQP
Sequence of c-Kit (P10721 26-976): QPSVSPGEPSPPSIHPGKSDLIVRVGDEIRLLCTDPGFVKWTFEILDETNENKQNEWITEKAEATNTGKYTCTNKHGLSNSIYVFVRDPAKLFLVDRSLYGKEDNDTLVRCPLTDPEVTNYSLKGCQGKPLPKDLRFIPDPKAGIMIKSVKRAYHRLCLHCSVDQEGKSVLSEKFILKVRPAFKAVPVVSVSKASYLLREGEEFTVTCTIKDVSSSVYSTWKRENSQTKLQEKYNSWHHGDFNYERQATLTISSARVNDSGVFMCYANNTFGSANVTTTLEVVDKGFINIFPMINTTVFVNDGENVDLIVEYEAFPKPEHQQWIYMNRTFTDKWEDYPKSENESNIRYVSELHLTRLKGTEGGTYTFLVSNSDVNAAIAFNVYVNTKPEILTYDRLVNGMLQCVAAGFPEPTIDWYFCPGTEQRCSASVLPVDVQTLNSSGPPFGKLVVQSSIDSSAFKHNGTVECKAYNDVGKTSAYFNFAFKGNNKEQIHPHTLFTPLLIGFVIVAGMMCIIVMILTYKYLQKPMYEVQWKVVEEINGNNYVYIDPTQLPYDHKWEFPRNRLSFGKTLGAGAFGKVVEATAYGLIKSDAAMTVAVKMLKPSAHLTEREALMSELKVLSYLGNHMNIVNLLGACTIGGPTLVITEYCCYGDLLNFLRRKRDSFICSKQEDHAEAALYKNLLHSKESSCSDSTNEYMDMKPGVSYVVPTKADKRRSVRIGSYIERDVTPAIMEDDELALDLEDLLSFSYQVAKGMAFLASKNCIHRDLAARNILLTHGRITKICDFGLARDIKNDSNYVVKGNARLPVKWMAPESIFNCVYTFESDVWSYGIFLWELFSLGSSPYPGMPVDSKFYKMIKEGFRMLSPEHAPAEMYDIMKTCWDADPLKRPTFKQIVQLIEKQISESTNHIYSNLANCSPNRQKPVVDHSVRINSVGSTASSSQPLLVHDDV

Row | IC50 [1] | IC50 [2] | IC50 [3] | c-Kit (% inhibition) [4] | CDK1 (% inhibition) [5] | p56 Lck (% inhibition) [6] | PDGFR (% inhibition) [7] | GSK-3β (% inhibition) [8] | EGFR (% inhibition) [9] | Abl (% inhibition) [10] | IC50 [11] | SMILES
1 | 1 to 1000 nM | 1 to 1000 nM | 1 to 1000 nM | – | – | – | – | – | – | – | – | NC1CCCCC1NC(=O)c1ccc(Nc2cc(-c3ccccc3OCc3ccccc3)ncn2)cc1 (stereo not drawn) [(198)]
2 | – | – | – | b (inhibition between 80 and 50%: b) | a (inhibition greater than 80%: a) | b (inhibition between 80 and 50%: b) | – | – | – | – | – | COc1ccccc1-c1cc(Nc2ccc(NC(=O)c3ccc(N)cc3)cc2)ncn1 [Compound 8]
3 | – | – | – | b (inhibition between 80 and 50%: b) | a (inhibition greater than 80%: a) | b (inhibition between 80 and 50%: b) | c (inhibition between 50 and 30%: c) | b (inhibition between 80 and 50%: b) | b (inhibition between 80 and 50%: b) | – | – | COc1ccccc1-c1cc(Nc2ccc(NC(C)=O)cc2)ncn1 [Compound 10]
4 | – | – | – | b (inhibition between 80 and 50%: b) | a (inhibition greater than 80%: a) | b (inhibition between 80 and 50%: b) | c (inhibition between 50 and 30%: c) | a (inhibition greater than 80%: a) | a (inhibition greater than 80%: a) | – | – | Cc1ccc(Nc2cc(-c3cccc(N)c3)ncn2)cc1NS(C)(=O)=O [Compound 12]
5 | – | – | – | b (inhibition between 80 and 50%: b) | a (inhibition greater than 80%: a) | b (inhibition between 80 and 50%: b) | c (inhibition between 50 and 30%: c) | c (inhibition between 50 and 30%: c) | a (inhibition greater than 80%: a) | – | – | COc1ccccc1-c1cc(Nc2ccc(N)cc2)ncn1 [Compound 22]
6 | – | – | – | b (inhibition between 80 and 50%: b) | b (inhibition between 80 and 50%: b) | b (inhibition between 80 and 50%: b) | b (inhibition between 80 and 50%: b) | c (inhibition between 50 and 30%: c) | c (inhibition between 50 and 30%: c) | – | – | COc1ccccc1-c1cc(Nc2ccc(NC(=O)NC3CCCCC3)cc2)ncn1 [Compound 38]
7 | – | – | – | b (inhibition between 80 and 50%: b) | a (inhibition greater than 80%: a) | b (inhibition between 80 and 50%: b) | c (inhibition between 50 and 30%: c) | b (inhibition between 80 and 50%: b) | b (inhibition between 80 and 50%: b) | b (inhibition between 80 and 50%: b) | – | COc1ccccc1-c1cc(Nc2ccc(NC(=O)c3ccc(N4CCN(C)CC4)cc3)cc2)ncn1 [Compound 49]
8 | – | – | – | – | a (inhibition greater than 80%: a) | a (inhibition greater than 80%: a) | – | a (inhibition greater than 80%: a) | b (inhibition between 80 and 50%: b) | – | – | CC(C)Oc1ccccc1-c1cc(Nc2ccc(NC(=O)c3ccc(N)cc3)cc2)ncn1 [Compound 58]
9 | – | – | – | b (inhibition between 80 and 50%: b) | a (inhibition greater than 80%: a) | b (inhibition between 80 and 50%: b) | b (inhibition between 80 and 50%: b) | – | a (inhibition greater than 80%: a) | b (inhibition between 80 and 50%: b) | – | COc1ccccc1-c1cc(Nc2ccc(NC(=O)CC3CCCCN3)cc2)ncn1 (stereo not drawn) [Compound 59]
10 | – | – | – | b (inhibition between 80 and 50%: b) | a (inhibition greater than 80%: a) | b (inhibition between 80 and 50%: b) | b (inhibition between 80 and 50%: b) | c (inhibition between 50 and 30%: c) | a (inhibition greater than 80%: a) | b (inhibition between 80 and 50%: b) | – | CCN(CC)CCC(=O)Nc1ccc(Nc2cc(-c3ccccc3OC)ncn2)cc1 [Compound 64]
11 | – | – | – | b (inhibition between 80 and 50%: b) | b (inhibition between 80 and 50%: b) | b (inhibition between 80 and 50%: b) | b (inhibition between 80 and 50%: b) | – | a (inhibition greater than 80%: a) | b (inhibition between 80 and 50%: b) | – | COc1ccccc1-c1cc(Nc2ccc(NC(=O)[C@H]3Cc4ccccc4CN3)cc2)ncn1 [Compound 65]
12 | – | – | – | b (inhibition between 80 and 50%: b) | b (inhibition between 80 and 50%: b) | b (inhibition between 80 and 50%: b) | b (inhibition between 80 and 50%: b) | – | a (inhibition greater than 80%: a) | b (inhibition between 80 and 50%: b) | – | COc1ccccc1-c1cc(Nc2ccc(NC(=O)C3(N)CCCCC3)cc2)ncn1 [Compound 66]
13 | – | – | – | b (inhibition between 80 and 50%: b) | b (inhibition between 80 and 50%: b) | b (inhibition between 80 and 50%: b) | b (inhibition between 80 and 50%: b) | – | a (inhibition greater than 80%: a) | b (inhibition between 80 and 50%: b) | – | COc1ccccc1-c1cc(Nc2ccc(NC(=O)C3(N)CCCC3)cc2)ncn1 [Compound 68]
14 | – | – | – | b (inhibition between 80 and 50%: b) | b (inhibition between 80 and 50%: b) | a (inhibition greater than 80%: a) | b (inhibition between 80 and 50%: b) | – | a (inhibition greater than 80%: a) | b (inhibition between 80 and 50%: b) | – | COc1ccccc1-c1cc(Nc2ccc(NC(=O)[C@H]3CCCCN3)cc2)ncn1 [Compound 69]
15 | – | – | – | b (inhibition between 80 and 50%: b) | a (inhibition greater than 80%: a) | b (inhibition between 80 and 50%: b) | b (inhibition between 80 and 50%: b) | c (inhibition between 50 and 30%: c) | c (inhibition between 50 and 30%: c) | – | – | COc1ccccc1-c1cc(Nc2ccc(NC(=O)Cc3ccccc3)cc2)ncn1 [Compound 71]
16 | – | – | – | – | a (inhibition greater than 80%: a) | b (inhibition between 80 and 50%: b) | b (inhibition between 80 and 50%: b) | b (inhibition between 80 and 50%: b) | a (inhibition greater than 80%: a) | c (inhibition between 50 and 30%: c) | – | COc1ccccc1-c1cc(Nc2ccc(C(=O)NC3CCCNC3)cc2)ncn1 (stereo not drawn) [Compound 86]
17 | – | – | – | – | b (inhibition between 80 and 50%: b) | b (inhibition between 80 and 50%: b) | b (inhibition between 80 and 50%: b) | c (inhibition between 50 and 30%: c) | a (inhibition greater than 80%: a) | b (inhibition between 80 and 50%: b) | – | COc1ccccc1-c1cc(Nc2ccc(NC(=O)[C@H]3CCCN3)cc2)ncn1 [Compound 91]
18 | – | – | – | – | a (inhibition greater than 80%: a) | b (inhibition between 80 and 50%: b) | c (inhibition between 50 and 30%: c) | a (inhibition greater than 80%: a) | a (inhibition greater than 80%: a) | – | – | CCCS(=O)(=O)Nc1cc(Nc2cc(-c3cccc(N)c3)ncn2)ccc1C [Compound 116]
19 | – | – | – | – | – | – | – | – | – | – | 1 to 10 µM | CCN(CC)CCNC(=O)c1ccc(Nc2cc(-c3ccccc3OC)ncn2)cc1 [Compound 217]
